Results from ChEMBL document CHEMBL3867433, “Synthesis and antimicrobial activity of styryl/pyrrolyl/pyrazolyl sulfonylmethyl-1,3,4-oxadiazolyl amines and styryl/pyrrolyl/pyrazolyl sulfonylmethyl-1,3,4-thiadiazolyl amines” (2016).

Assays:
Assay type in all cases: functional
[1] = tested on: Klebsiella pneumoniae; assay: Antibacterial activity against Klebsiella pneumoniae at 12.5 ug/well after 24 hrs by agar well diffusion method; settings: read-out: DIZ
[2] = tested on: Aspergillus niger; assay: Antifungal activity against Aspergillus niger assessed as inhibition of spore germination at 100 ug/well after 48 hrs by agar well diffusion method; settings: read-out: DIZ
[3] = Antifungal activity against Penicillium chrysogenum assessed as inhibition of spore germination at 50 ug/well after 48 hrs by agar well diffusion method
[4] = tested on: Staphylococcus aureus; assay: Antibacterial activity against Staphylococcus aureus at 12.5 ug/well after 24 hrs by agar well diffusion method; settings: read-out: DIZ
[5] = tested on: Bacillus subtilis; assay: Antibacterial activity against Bacillus subtilis at 25 ug/well after 24 hrs by agar well diffusion method; settings: read-out: DIZ
[6] = tested on: Aspergillus niger; assay: Antifungal activity against Aspergillus niger assessed as inhibition of spore germination at 25 ug/well after 48 hrs by agar well diffusion method; settings: read-out: DIZ
[7] = tested on: Pseudomonas aeruginosa; assay: Antibacterial activity against Pseudomonas aeruginosa at 50 ug/well after 24 hrs by agar well diffusion method; settings: read-out: DIZ
[8] = tested on: Aspergillus niger; assay: Antifungal activity against Aspergillus niger assessed as inhibition of spore germination at 12.5 ug/well after 48 hrs by agar well diffusion method; settings: read-out: DIZ
[9] = Antifungal activity against Penicillium chrysogenum assessed as inhibition of spore germination at 25 ug/well after 48 hrs by agar well diffusion method
[10] = tested on: Bacillus subtilis; assay: Antibacterial activity against Bacillus subtilis at 12.5 ug/well after 24 hrs by agar well diffusion method; settings: read-out: DIZ
[11] = tested on: Pseudomonas aeruginosa; assay: Antibacterial activity against Pseudomonas aeruginosa at 25 ug/well after 24 hrs by agar well diffusion method; settings: read-out: DIZ
[12] = Antifungal activity against Penicillium chrysogenum assessed as inhibition of spore germination at 100 ug/well after 48 hrs by agar well diffusion method
[13] = tested on: Klebsiella pneumoniae; assay: Antibacterial activity against Klebsiella pneumoniae at 25 ug/well after 24 hrs by agar well diffusion method; settings: read-out: DIZ
[14] = tested on: Staphylococcus aureus; assay: Antibacterial activity against Staphylococcus aureus at 50 ug/well after 24 hrs by agar well diffusion method; settings: read-out: DIZ
[15] = Antifungal activity against Penicillium chrysogenum assessed as inhibition of spore germination at 12.5 ug/well after 48 hrs by agar well diffusion method
[16] = tested on: Bacillus subtilis; assay: Antibacterial activity against Bacillus subtilis at 100 ug/well after 24 hrs by agar well diffusion method; settings: read-out: DIZ
[17] = tested on: Staphylococcus aureus; assay: Antibacterial activity against Staphylococcus aureus at 100 ug/well after 24 hrs by agar well diffusion method; settings: read-out: DIZ
[18] = tested on: Klebsiella pneumoniae; assay: Antibacterial activity against Klebsiella pneumoniae at 50 ug/well after 24 hrs by agar well diffusion method; settings: read-out: DIZ
[19] = tested on: Pseudomonas aeruginosa; assay: Antibacterial activity against Pseudomonas aeruginosa at 12.5 ug/well after 24 hrs by agar well diffusion method; settings: read-out: DIZ
[20] = tested on: Staphylococcus aureus; assay: Antibacterial activity against Staphylococcus aureus at 25 ug/well after 24 hrs by agar well diffusion method; settings: read-out: DIZ
[21] = tested on: Klebsiella pneumoniae; assay: Antibacterial activity against Klebsiella pneumoniae at 100 ug/well after 24 hrs by agar well diffusion method; settings: read-out: DIZ
[22] = tested on: Pseudomonas aeruginosa; assay: Antibacterial activity against Pseudomonas aeruginosa at 100 ug/well after 24 hrs by agar well diffusion method; settings: read-out: DIZ
[23] = tested on: Bacillus subtilis; assay: Antibacterial activity against Bacillus subtilis at 50 ug/well after 24 hrs by agar well diffusion method; settings: read-out: DIZ
[24] = tested on: Aspergillus niger; assay: Antifungal activity against Aspergillus niger assessed as inhibition of spore germination at 50 ug/well after 48 hrs by agar well diffusion method; settings: read-out: DIZ

Compound	zone of inhibition at 12.5 µg/disc [1] [mm]	zone of inhibition at 100 µg/disc [2] [mm]	inhibition zone (IZ) [3] [mm]	zone of inhibition at 25 µg/disc [5] [mm]	zone of inhibition at 25 µg/disc [6] [mm]	zone of inhibition at 50 µg/disc [7] [mm]	inhibition zone (IZ) [9] [mm]	zone of inhibition at 12.5 µg/disc [10] [mm]	zone of inhibition at 25 µg/disc [11] [mm]	inhibition zone (IZ) [12] [mm]	zone of inhibition at 25 µg/disc [13] [mm]	zone of inhibition at 50 µg/disc [14] [mm]	inhibition zone (IZ) [15] [mm]	zone of inhibition at 100 µg/disc [16] [mm]	zone of inhibition at 100 µg/disc [17] [mm]	zone of inhibition at 50 µg/disc [18] [mm]	zone of inhibition at 12.5 µg/disc [19] [mm]	zone of inhibition at 100 µg/disc [21] [mm]	zone of inhibition at 100 µg/disc [22] [mm]	zone of inhibition at 50 µg/disc [23] [mm]	other results
Cc1ccc(/C=C\S(=O)(=O)Cc2nnc(N)s2)cc1	23	28	29	26	24	25	27	25	23	31	25	21	25	29	23	27	21	29	27	27	zone of inhibition at 12.5 µg/disc [4]: 19 mm; zone of inhibition at 12.5 µg/disc [8]: 22 mm; zone of inhibition at 25 µg/disc [20]: 20 mm; zone of inhibition at 50 µg/disc [24]: 26 mm
Nc1nnc(CS(=O)(=O)/C=C\c2ccccc2)s1	27	31	36	28	27	27	34	27	25	35	29	23	29	31	25	31	23	33	29	29	zone of inhibition at 12.5 µg/disc [4]: 21 mm; zone of inhibition at 12.5 µg/disc [8]: 25 mm; zone of inhibition at 25 µg/disc [20]: 22 mm; zone of inhibition at 50 µg/disc [24]: 29 mm
Cc1ccc(/C=C\S(=O)(=O)Cc2nnc(N)o2)cc1	11	13	14	9	10	16	12	8	14	16	13	12	10	14	14	15	12	17	18	11	zone of inhibition at 12.5 µg/disc [8]: 8 mm; zone of inhibition at 50 µg/disc [24]: 11 mm
Nc1nnc(CS(=O)(=O)c2c[nH]cc2-c2ccccc2)s1	26	18	29	21	14	23	27	20	21	31	27	22	25	24	24	29	19	31	25	22	zone of inhibition at 12.5 µg/disc [4]: 17 mm; zone of inhibition at 12.5 µg/disc [8]: 12 mm; zone of inhibition at 25 µg/disc [20]: 19 mm; zone of inhibition at 50 µg/disc [24]: 16 mm
Nc1nnc(CS(=O)(=O)c2n[nH]cc2-c2ccc(Cl)cc2)o1	11	13	15	9	9	16	13	8	14	17	13	12	12	13	15	15	12	17	18	12	zone of inhibition at 12.5 µg/disc [4]: 8 mm; zone of inhibition at 25 µg/disc [20]: 10 mm; zone of inhibition at 50 µg/disc [24]: 11 mm
Nc1nnc(CS(=O)(=O)c2n[nH]cc2-c2ccccc2)s1	26	29	34	26	25	25	32	25	23	36	28	22	30	29	24	30	22	32	27	27	zone of inhibition at 12.5 µg/disc [4]: 20 mm; zone of inhibition at 12.5 µg/disc [8]: 23 mm; zone of inhibition at 25 µg/disc [20]: 21 mm; zone of inhibition at 50 µg/disc [24]: 27 mm
Cc1ccc(-c2c[nH]cc2S(=O)(=O)Cc2nnc(N)s2)cc1	20	15	26	19	11	21	24	18	19	28	22	19	22	22	22	24	17	26	23	20	zone of inhibition at 12.5 µg/disc [4]: 15 mm; zone of inhibition at 12.5 µg/disc [8]: 9 mm; zone of inhibition at 25 µg/disc [20]: 17 mm; zone of inhibition at 50 µg/disc [24]: 13 mm
Nc1nnc(CS(=O)(=O)/C=C\c2ccccc2)o1	15	15	15	13	11	18	13	12	16	17	17	15	11	16	18	19	14	21	20	14	zone of inhibition at 12.5 µg/disc [4]: 11 mm; zone of inhibition at 12.5 µg/disc [8]: 9 mm; zone of inhibition at 25 µg/disc [20]: 13 mm; zone of inhibition at 50 µg/disc [24]: 13 mm
Nc1nnc(CS(=O)(=O)/C=C\c2ccc(Cl)cc2)o1	16	19	18	14	15	19	16	13	17	20	18	16	15	17	20	20	15	22	21	15	zone of inhibition at 12.5 µg/disc [4]: 12 mm; zone of inhibition at 12.5 µg/disc [8]: 13 mm; zone of inhibition at 25 µg/disc [20]: 14 mm; zone of inhibition at 50 µg/disc [24]: 17 mm
